*1 amine or outer side, *2 acyl side, *3 side chain or, on linkers, in order; H or OH if unused. Where a SMILES comes first, the peptide text is derived from it. Bridges are numbered along the chain shown (N, C = ends). Side-chain parts run from the residue outwards. [ ]: non-standard residue; d: D form. The star is where a group is joined. Trp(5-OMe) = COc1ccc2[nH]cc(C[C@H](N)C(=O)O)c2c1; DBCO = C1#Cc2ccccc2N(*)Cc2ccccc21; Igl = N[C@H](C(=O)O)C1Cc2ccccc2C1; PEG5 = NCCOCCOCCOCCOCCOCCC(=O)O; Suc = O=C(CCC(=O)[*:2])[*:1]; Pra = C#CC[C@H](N)C(=O)O; Dap = NC[C@H](N)C(=O)O; Acm = CC(=O)NC*

The target in the first experiment is T1, Fc tagged recombinant human EGFR (rhEGFR-Fc) (Homo sapiens, UniProt P00533).
T1 construct: purchased R&D Systems 344-ER-050
Type of experiment: binding.
Conditions: not given
Here is the method: Surface plasmon resonance (SPR) binding studies were carried out on a Biacore T200 instrument (GE Healthcare). Approximately 10,000 RU of anti-Fc antibody (GE Healthcare, Cat #BR100839) was immobilized via amine coupling on each of flow cells 1 and 2 of a CM5 dextran-coated gold sensor chip (GE Healthcare, Cat #BR100530). […] The contact time and resulting amount of rhEGFR-Fc capture was varied based on the nature of the analyte, namely whether it was a peptide or nanoparticle.
Peptide binding assays were carried out in 10 mM PBS buffer supplemented with 0.05% surfactant P20 and 5% DMSO by volume, at 25° C. Peptides were injected over the rhEGFR-Fc surface for 60 s, followed by dissociation (buffer injection) for 60 s and regeneration with a 10 s pulse of 3M MgCl2. A fresh rhEGFR-Fc surface was generated for each concentration of each peptide tested. Peptide binding data was analyzed by fitting to a 1:1 Langmuir kinetic model to obtain the on-rate (ka), off-rate (kd) and/or equilibrium binding constant (KD) of the interaction.
For the molecule `CC(=O)N[C@@H](CC(=O)O)C(=O)N[C@@H](C)C(=O)N[C@H]1CSSC[C@@H](C(=O)N[C@@H](CC(C)C)C(=O)N[C@@H](CCC(N)=O)C(=O)NCC(=O)NCC(=O)N[C@@H](CCCCNC(=O)CCOCCOCCOCCOCCOCCNC(=O)CCC(=O)N2Cc3ccccc3C#Cc3ccccc32)C(N)=O)NC(=O)[C@H](CCC(=O)O)NC(=O)[C@H](CCCNC(=N)N)NC(=O)CNC(=O)[C@H](Cc2c[nH]c3ccccc23)NC(=O)[C@H](C(C)C)NC(=O)[C@H](CCC(=O)O)NC(=O)[C@H](Cc2c[nH]c3ccccc23)NC(=O)[C@H]([C@@H](C)O)NC1=O` [Peptide P2-2], the “binding of free peptide to EGFR by SPR, in words” value is given as “improved affinity relative to the parent peptide”.
On the same count and under the same terms, for `CC(=O)N[C@@H](CC(=O)O)C(=O)N1CCC[C@H]1C(=O)N[C@@H]1C(=O)N[C@@H]([C@@H](C)O)C(=O)N[C@@H](Cc2c[nH]c3ccccc23)C(=O)N[C@@H](CCC(=O)O)C(=O)N[C@@H](C(C)C)C(=O)N[C@@H](Cc2c[nH]c3ccccc23)C(=O)NCC(=O)N[C@@H](CCCNC(=N)N)C(=O)N[C@@H](CCC(=O)O)C(=O)N[C@H](C(=O)N[C@@H](CC(C)C)C(=O)N[C@@H](CCC(N)=O)C(=O)NCC(=O)NCC(=O)N[C@@H](CCCCNC(=O)CCOCCOCCOCCOCCOCCNC(=O)CCC(=O)N2Cc3ccccc3C#Cc3ccccc32)C(N)=O)C(C)(C)SSC1(C)C` [Peptide P2-55] the value was “improved affinity relative to the parent peptide”; for `COc1ccc2[nH]cc(C[C@@H]3NC(=O)[C@H](C(C)C)NC(=O)[C@H](CCC(=O)O)NC(=O)[C@H](C4Cc5ccccc5C4)NC(=O)[C@H]([C@@H](C)O)NC(=O)[C@@H](NC(=O)[C@@H]4CCCN4C(=O)[C@H](CC(=O)O)NC(C)=O)CSSC[C@@H](C(=O)N[C@@H](CC(C)C)C(=O)N[C@@H](CCC(N)=O)C(=O)NCC(=O)NCC(=O)N[C@@H](CCCCNC(=O)CCOCCOCCOCCOCCOCCNC(=O)CCC(=O)N4Cc5ccccc5C#Cc5ccccc54)C(N)=O)NC(=O)[C@H](CCC(=O)O)NC(=O)[C@H](CCCNC(=N)N)NC(=O)CNC3=O)c2c1` [Peptide P2-102] (Ac-DPCT[Igl]EV[Trp(5-OMe)]GRECLQGGK([PEG5-Suc-DBCO])-NH2; disulfide 3-12), “improved affinity relative to the parent peptide”.

Staying with this experiment, now noted: Table 6, TGF fragments.
Turning to `C#CC[C@H](NC(=O)CN)C(=O)NCC(=O)NCC(=O)N[C@@H](C)C(=O)N[C@@H](CC(=O)O)C(=O)N[C@@H](CC(C)C)C(=O)N[C@@H](CC(C)C)C(=O)N[C@@H](C)C(=O)N[C@H](C(=O)N[C@H](C(=O)N[C@@H](C)C(=O)N[C@@H](C)C(N)=O)C(C)C)C(C)C` [TGFf-4] (H-G[Pra]GGADLLAVVAA-NH2), the KD entry is reported as “No binding”.
On the same count and under the same terms, the entry for `C#CC[C@H](NC(=O)CN)C(=O)NCC(=O)NCC(=O)N[C@@H](C)C(=O)N[C@@H](CCCNC(=N)N)C(=O)N[C@@H](CS)C(=O)N[C@@H](CCC(=O)O)C(=O)N[C@@H](Cc1c[nH]cn1)C(=O)N[C@@H](C)C(=O)N[C@@H](CC(=O)O)C(=O)N[C@@H](C)C(=O)N[C@@H](CC(=O)O)C(=O)N[C@@H](CC(C)C)C(N)=O` [TGFf-5] (H-G[Pra]GGARCEHADADL-NH2) is “No binding”; for `C#CC[C@H](NC(=O)CN)C(=O)NCC(=O)NCC(=O)N[C@@H](CO)C(=O)NCC(=O)N[C@@H](Cc1ccc(O)cc1)C(=O)N[C@H](C(=O)NCC(=O)N[C@@H](C)C(=O)N[C@@H](CCCNC(=N)N)C(=O)N[C@@H](CS)C(=O)N[C@@H](CCC(=O)O)C(=O)N[C@@H](Cc1c[nH]cn1)C(N)=O)C(C)C` [TGFf-6] (H-G[Pra]GGSGYVGARCEH-NH2) it is “No binding”.
`C#CC[C@H](NC(=O)CN)C(=O)NCC(=O)NCC(=O)N[C@@H](C)C(=O)N[C@@H](CSCNC(C)=O)C(=O)N[C@H](C(=O)N[C@@H](CS)C(=O)N[C@@H](Cc1c[nH]cn1)C(=O)N[C@@H](CO)C(=O)NCC(=O)N[C@@H](Cc1ccc(O)cc1)C(=O)N[C@H](C(=O)NCC(N)=O)C(C)C)C(C)C` [TGFf-7] (H-G[Pra]GGAC(Acm)VCHSGYVG-NH2): the KD result is “No binding”.
Still for that read-out and setting: the entry for `C#CC[C@H](NC(=O)CN)C(=O)NCC(=O)NCC(=O)N[C@@H](CCC(N)=O)C(=O)N[C@@H](CCC(=O)O)C(=O)N[C@@H](CC(=O)O)C(=O)N[C@@H](CCCCN)C(=O)N1CCC[C@H]1C(=O)N[C@@H](C)C(=O)N[C@@H](CSCNC(C)=O)C(=O)N[C@H](C(=O)N[C@@H](CS)C(=O)N[C@@H](Cc1c[nH]cn1)C(N)=O)C(C)C` [TGFf-8, H2N-G-Par-GG-QEDKPAC(Acm)VCH-CONH2] (H-G[Pra]GGQEDKPAC(Acm)VCH-NH2) is “No binding”.
Consider `C#CC[C@H](NC(=O)CN)C(=O)NCC(=O)NCC(=O)N[C@@H](CS)C(=O)N[C@@H](CCCNC(=N)N)C(=O)N[C@@H](Cc1ccccc1)C(=O)N[C@@H](CC(C)C)C(=O)N[C@H](C(=O)N[C@@H](CCC(N)=O)C(=O)N[C@@H](CCC(=O)O)C(=O)N[C@@H](CC(=O)O)C(=O)N[C@@H](CCCCN)C(=O)N1CCC[C@H]1C(N)=O)C(C)C` [TGFf-9] (H-G[Pra]GGCRFLVQEDKP-NH2), for which the KD entry is recorded as “No binding”.
The same measure, in the same setting: for `C#CC[C@H](NC(=O)CN)C(=O)NCC(=O)NCC(=O)N[C@@H](CSCNC(C)=O)C(=O)N[C@@H](Cc1ccccc1)C(=O)N[C@@H](Cc1c[nH]cn1)C(=O)NCC(=O)N[C@H](C(=O)N[C@@H](CS)C(=O)N[C@@H](CCCNC(=N)N)C(=O)N[C@@H](Cc1ccccc1)C(=O)N[C@H](C(N)=O)C(C)C)[C@@H](C)O` [TGFf-10] (H-G[Pra]GGC(Acm)FHGTCRFV-NH2) the value was “No binding”; for `C#CC[C@H](NC(=O)CN)C(=O)NCC(=O)NCC(=O)N[C@@H](CO)C(=O)N[C@@H](Cc1c[nH]cn1)C(=O)N[C@H](C(=O)N[C@@H](CCC(N)=O)C(=O)N[C@@H](Cc1ccccc1)C(=O)N[C@@H](CS)C(=O)N[C@@H](Cc1ccccc1)C(=O)N[C@@H](Cc1c[nH]cn1)C(=O)NCC(=O)N[C@H](C(N)=O)[C@@H](C)O)[C@@H](C)O` [TGFf-11] (H-G[Pra]GGSHTQFCFHGT-NH2), “No binding”.
On the same count and under the same terms, the entry for `C#CC[C@H](NC(=O)CN)C(=O)NCC(=O)NCC(=O)N[C@@H](CC(N)=O)C(=O)N[C@@H](CC(=O)O)C(=O)N[C@@H](CS)C(=O)N1CCC[C@H]1C(=O)N[C@@H](CC(=O)O)C(=O)N[C@@H](CO)C(=O)N[C@@H](Cc1c[nH]cn1)C(=O)N[C@H](C(=O)N[C@@H](CCC(N)=O)C(=O)N[C@@H](Cc1ccccc1)C(N)=O)[C@@H](C)O` [TGFf-12] (H-G[Pra]GGNDCPDSHTQF-NH2) is “No binding”; for `C#CC[C@H](NC(=O)CN)C(=O)NCC(=O)NCC(=O)N[C@@H](Cc1c[nH]c2ccccc12)C(=O)N[C@@H](CO)C(=O)N[C@@H](Cc1c[nH]cn1)C(=O)N[C@@H](Cc1ccccc1)C(=O)N[C@@H](CC(N)=O)C(=O)N[C@@H](CC(=O)O)C(=O)N[C@@H](CS)C(=O)N1CCC[C@H]1C(=O)N[C@@H](CC(=O)O)C(N)=O` [TGFf-13] (H-G[Pra]GGWSHFNDCPD-NH2) it is “No binding”; for `C#CC[C@H](NC(=O)CN)C(=O)NCC(=O)NCC(=O)N[C@@H](C)C(=O)N[C@@H](CCCNC(=N)N)C(=O)N[C@@H](CS)C(=O)N[C@@H](Cc1c[nH]cn1)C(=O)N[C@@H](CCC(=O)O)C(=O)N[C@@H](Cc1c[nH]cn1)C(=O)N[C@@H](C)C(=O)N[C@@H](CC(=O)O)C(=O)N[C@@H](CC(C)C)C(=O)N[C@@H](CC(C)C)C(=O)N[C@@H](C)C(N)=O` [TGFf-14] (H-G[Pra]GGARCHEHADLLA-NH2) it is “No binding”.
On the same count and under the same terms, the entry for “H2N-G-Par-GG-CPDSHTQFC(Acm)FHGTC-CONH2 (H-G[Pra]GGCPDSHTQFC(Acm)FHGTC-NH2; disulfide 5-18; SMILES C#CC[C@H](NC(=O)CN)C(=O)NCC(=O)NCC(=O)N[C@H]1CSSC[C@@H](C(N)=O)NC(=O)[C@H]([C@@H](C)O)NC(=O)CNC(=O)[C@H](Cc2c[nH]cn2)NC(=O)[C@H](Cc2ccccc2)NC(=O)[C@H](CSCNC(C)=O)NC(=O)[C@H](Cc2ccccc2)NC(=O)[C@H](CCC(N)=O)NC(=O)[C@H]([C@@H](C)O)NC(=O)[C@H](Cc2c[nH]cn2)NC(=O)[C@H](CO)NC(=O)[C@H](CC(=O)O)NC(=O)[C@@H]2CCCN2C1=O) [TGFf-3]” is “Not soluble”.

The same experiment, now with this note: Table 13, point mutations.
In the case of `C#CC[C@H](NC(=O)CNC(=O)CNC(=O)[C@H](CCC(N)=O)NC(=O)[C@H](CC(C)C)NC(=O)[C@@H]1CSSC[C@H](NC(=O)[C@@H]2CCCN2C(=O)[C@@H](N)CC(=O)O)C(=O)N[C@@H]([C@@H](C)O)C(=O)N[C@@H](Cc2ccccc2)C(=O)N[C@@H](CCC(=O)O)C(=O)N[C@@H](C(C)C)C(=O)N[C@@H](Cc2c[nH]c3ccccc23)C(=O)NCC(=O)N[C@@H](CCCNC(=N)N)C(=O)N[C@@H](CCC(=O)O)C(=O)N1)C(=O)NCC(N)=O` [Peptide P2-29] (H-DPCTFEVWGRECLQGG[Pra]G-NH2; disulfide 3-12), the “KD/P2 KD” value came out at 9.24.
Still for that read-out and setting: for “H2N-DPCTWEVFGRECLQ-GG-Par-G-CONH2 [Peptide P2-40]” the value was “NS at 100 μM”.
Take “H2N-DPCTWEVWARECLQ-GG-Par-G-CONH2 [Peptide P2-41]”: the “KD/P2 KD” value is on record as “NS at 100 μM”.

The experiment is the same for the next values; noted with them: Table 14; relative affinity compared to KD of parent P2 (FIG. 16).
On to `CC(=O)N[C@@H](CC(=O)O)C(=O)N1CCC[C@H]1C(=O)N[C@@H]1C(=O)N[C@@H]([C@@H](C)O)C(=O)N[C@@H](Cc2c[nH]c3ccccc23)C(=O)N[C@@H](CCC(=O)O)C(=O)N[C@@H](C(C)C)C(=O)N[C@@H](Cc2c[nH]c3ccccc23)C(=O)NCC(=O)N[C@@H](CCCNC(=N)N)C(=O)N[C@@H](CCC(=O)O)C(=O)N[C@H](C(=O)N[C@@H](CC(C)C)C(=O)N[C@@H](CCC(N)=O)C(=O)NCC(=O)NCC(=O)N[C@@H](CCCCNC(=O)CCOCCOCCOCCOCCOCCNC(=O)CCC(=O)N2Cc3ccccc3C#Cc3ccccc32)C(N)=O)C(C)(C)SSC1(C)C` [Peptide P2-55], for which the Result came out at 1.18.
The same measure, in the same setting: the entry for “H2N-GDP-Dap-TWEVWGREDLQ-GG-Par-G-CONH2 (H-GDP[Dap]TWEVWGREDLQGG[Pra]G-NH2; lactam 4-13) [Peptide P2-59]” is “No binding”; for “H2N-GDP-Dap-TWEVWGREELQ-GG-Par-G-CONH2 (H-GDP[Dap]TWEVWGREELQGG[Pra]G-NH2; lactam 4-13) [Peptide P2-63]” it is “No binding”.

The record behind these values is patent US20190029960A1, “Therapeutic Nanoparticles Having EGFR Ligands and Methods of Making and Using Same” (Pfizer Inc., priority 2016, published 2019).
